Measurements reported in ChEMBL document CHEMBL1123919, “Molecular modification of anticholinergics as probes for muscarinic receptors. 3. Conformationally restricted analogues of benactyzine” (J Med Chem, 1987).

Legend:
[1] = molecular target: Muscarinic acetylcholine receptor; assay: Compound was evaluated for the inhibition of binding of [3H]QNB (quinuclidinyl benzilate) to striatal Muscarinic acetylcholine receptor; format: protein assay
Rattus norvegicus = organism: Rattus norvegicus; assay: Antimuscarinic potency is measured as its ability to block ACh-induced contractions of the rat ileum.; format: functional; conditions: read-out: pA2 (converted)

Row | Structure (SMILES) | IC50 [1] [nM] | Kb (Rattus norvegicus) [nM]
1 | CCN(CC)C[C@H]1C[C@@H]2COC(c3ccccc3)(c3ccccc3)[C@@H]2O1.Cl | 19000 | 
2 | CCN(CC)CC[C@@H]1COC(c2ccccc2)(c2ccccc2)[C@@H]1O |  | 646
3 | CCN(CC)CC[C@H]1COC(c2ccccc2)(c2ccccc2)[C@@H]1O |  | 20000
4 | CCN(CC)CCC1COC(c2ccccc2)(c2ccccc2)C1=O.Cl (stereo not given) | 2000 | 447
